Experiment [1] deals with T1, mouse TAPP2 C-terminal PH domain (residues 174 to 425), GST fusion (Mus musculus, UniProt Q9ERS5).
T1 construct: made in house; host or cells: human embryonic kidney 293 cells (pEBG-2T)
Nature of the experiment: Protein-lipid overlay. In kind it is binding. The following applies: protein-lipid overlay (FIG. 2). How it is done:
(§1) FIG. 2. Phosphoinositide binding properties of the novel PH domains. The ability of the indicated GST fusion proteins to bind a variety of phosphoinositides was analysed using a protein-lipid overlay. Serial dilutions of the indicated phosphoinositides (100 pmol, 50 pmol, 25 pmol, 12.5 pmol, 6.3 pmol, 3.1 pmol and 1.6 pmol) were spotted onto a nitrocellulose membranes which were then incubated with the purified GST fusion proteins. The membranes were washed and the GST-fusion proteins bound to the membrane by virtue of their interaction with lipid were detected using a GST antibody. A representative of at least 3 separate experiments carried out is shown.
(§2) FIG. 4. Comparison of the phosphoinositide binding properties of the N-terminal and C-terminal PH domains of TAPP1 and TAPP2. The ability of wild type and mutant forms of full length (FL) and isolated N-terminal (NT) and C-terminal (CT) PH domains of TAPP1 and TAPP2 GST-fusion proteins to interact with phosphoinositides were analysed using a protein-lipid overlay. Serial dilutions of the indicated phosphoinositides (100 pmol, 50 pmol, 25 pmol, 12.5 pmol, 6.3 pmol, 3.1 pmol and 1.6 pmol) were spotted onto a nitrocellulose membrane which was then incubated with the indicated purified GST fusion proteins. The membranes were washed and the GST-fusion proteins bound to the membrane by virtue of their interactions with lipid were detected using a GST antibody. A representative experiment of three is shown. The isolated N-terminal PH domain of human TAPP1 comprises residues 1 to 147, the isolated C-terminal PH domain of human TAPP1 comprises residues 95 to 404, the isolated N-terminal PH domain of mouse TAPP2 comprises residues 1 to 131 and the isolated C-terminal PH of mouse TAPP2 comprises residues 174 to 425.
(§3) Protein-Lipid overlay. To assess the phosphoinositide binding properties of each PH domain, a protein-lipid overlay assay was performed using the GST fusion proteins as described previously. […] The membrane was blocked in 3% (by mass) fatty acid-free BSA in TBST (50 mM Tris/HCl pH 7.5, 150 mM NaCl and 0.1% Tween-20 (by vol) for lh. The membrane was then incubated overnight at 4° C. with gentle agitation in the same solution containing 0.2 μg/ml of the indicated GST fusion protein. The membranes were washed 6 times over 30 min in TBST and then incubated for 1 h with 1/1000 dilution of anti-GST monoclonal antibody (Sigma). The membranes were washed as before, then incubated for 1 h with 1/5000 dilution of anti-mouse-HRP conjugate (Pierce). Finally, the membranes were washed 12 times over 1 h in TBST and the GST-fusion protein bound to the membrane by virtue of its interaction with phospholipid was detected by enhanced chemiluminescence.

Experiment [2] concerns the target human TAPP1 C-terminal PH domain (residues 95 to 404), GST fusion (Homo sapiens, UniProt Q9HB21). Nature of the experiment: Protein-lipid overlay. The experiment is classed as binding. Conditions: protein-lipid overlay (FIG. 2). As to the method:
as §1, §2, §3

The target in experiment [3] is T2, human TAPP1 C-terminal PH domain (CT-PH TAPP1, residues 95 to 404), GST fusion (Homo sapiens, UniProt Q9HB21, T320A).
T2 construct: made in house; host or cells: human embryonic kidney 293 cells (pEBG-2T)
T2 sequence (Q9HB21 95-404 T320A): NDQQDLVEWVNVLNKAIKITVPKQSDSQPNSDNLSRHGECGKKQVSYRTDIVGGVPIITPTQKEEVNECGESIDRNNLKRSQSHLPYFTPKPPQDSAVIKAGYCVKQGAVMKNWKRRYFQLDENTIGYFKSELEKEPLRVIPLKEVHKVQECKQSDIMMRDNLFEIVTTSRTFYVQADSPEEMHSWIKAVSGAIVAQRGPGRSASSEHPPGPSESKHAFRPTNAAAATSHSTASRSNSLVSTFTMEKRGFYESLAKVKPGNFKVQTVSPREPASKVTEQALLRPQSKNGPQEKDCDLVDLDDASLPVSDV
Nature of the experiment: Surface plasmon resonance (BIACore), GST fusion binding to phosphoinositide in supported lipid monolayer. The following applies: supported phosphatidylcholine monolayers, 1:1 binding model, read-out: Apparent Kd. From the text:
Cloning of PH domains and preparation of expression constructs. All the human and mouse EST's were obtained from the I.M.A.G.E. Consortium and sequenced. The plant EST (accession number T04439) encoding a full length clone of AtPH1 was obtained from the Arabidopsis Biological Research. Centre (Ohio University). The sequence of each EST was verified and the full length PH domain of each EST was amplified by PCR using the Hi-fidelity PCR system with primers designed to incorporate a Kozak site, an initiating ATG codon followed by a myc epitope tag and a stop codon after the PH domain. […]
Kinetic analyses of the interactions between the GST PH domain fusions and the polyphosphoinositides were made using surface plasmon resonance based procedures as described previously, with the following modifications. […] Data were analysed using the bimolecular interaction model and the global fitting feature of the BIAevaluation 3 software for several sensorgrams at different protein concentrations. […] The relative binding affinities of each protein relative to the binding of full length GST-TAPP1 to PtdIns(3,4)P2 were also calculated.
We studied the specificity and affinity of interaction of the PH domains for phosphoinositide lipids using either a “protein-lipid overlay” assay (FIG. 2) or the more quantitative surface plasmon resonance based approach (Table 2). […]
On the technique in general: In SPR one partner is held on a chip, and binding of the other changes the refractive index at the surface.

Chain of human TAPP1 C-terminal PH domain (residues 95 to 404), GST fusion (Q9HB21 95-404): as the sequence (Q9HB21 95-404 T320A) above, with A226T counted along it
T1 sequence (Q9ERS5 174-425): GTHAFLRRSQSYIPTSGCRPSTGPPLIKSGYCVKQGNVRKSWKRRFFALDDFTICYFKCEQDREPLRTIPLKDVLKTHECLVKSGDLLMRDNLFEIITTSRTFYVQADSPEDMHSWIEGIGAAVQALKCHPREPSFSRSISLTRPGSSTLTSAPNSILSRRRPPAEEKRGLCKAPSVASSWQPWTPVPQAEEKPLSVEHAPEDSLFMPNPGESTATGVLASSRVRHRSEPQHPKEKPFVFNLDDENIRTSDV

Regarding `CCCCCCCCCCCCCCCC(=O)OC[C@H](COP(=O)(O)O[C@H]1[C@H](O)[C@@H](O)[C@H](OP(=O)(O)O)[C@@H](OP(=O)(O)O)[C@H]1O)OC(=O)CCCCCCCCCCCCCCC` [PtdIns(3,4)P2], the phosphoinositide binding result in experiment [1] and in experiment [2] was “interacted” in each case. Besides, in experiment [3], the Kd amounted to 27 nM.

The values above are taken from patent publication US20040106148A1, “Polypeptides” (priority 2000, published 2004).
